What all share (format): biochemical
Assay [1] addresses T1, cathepsin L (Homo sapiens, UniProt P07711).
T1 construct: cathepsin L—isolated from human liver (Calbiochem #219402); purchased Calbiochem 219402; host or cells: human liver (tissue-derived)
Nature of the assay: Cathepsin L enzyme inhibition in vitro (kinetic fluorescence assay). The note with it: cathepsin L isolated from human liver vs calpain I. Put shortly: (§1)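 Kinetic fluorescence (ex 390/em 460 nm) at room temperature in 50 mM MES, 2 mM EDTA, 0.05% Brij 35, 2.5 mM L-cysteine, pH 6.0. Cathepsin B (liver, 0.25 nM) with 100 μM Z-Phe-Arg-AMC; cathepsin L (liver, 1 nM) with 2 μM Z-Phe-Arg-AMC; recombinant E. coli cathepsin S (0.5 nM) with 20 μM Z-Val-Val-Arg-AMC. Ki via Cheng-Prusoff.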

For assay [2], the target named is T2, cathepsin S (Homo sapiens, UniProt P25774).
T2 construct: purchased Calbiochem 219343; host or cells: E. coli
Description: Cathepsin S enzyme inhibition in vitro (kinetic fluorescence assay). The note with it: recombinant human cathepsin S vs calpain I. An outline of the steps:
as §1

For assay [3], the target named is T3, cathepsin K (Homo sapiens, UniProt P43235).
T3 construct: purchased Calbiochem 342001; host or cells: E. coli
T3 sequence (P43235 115-329): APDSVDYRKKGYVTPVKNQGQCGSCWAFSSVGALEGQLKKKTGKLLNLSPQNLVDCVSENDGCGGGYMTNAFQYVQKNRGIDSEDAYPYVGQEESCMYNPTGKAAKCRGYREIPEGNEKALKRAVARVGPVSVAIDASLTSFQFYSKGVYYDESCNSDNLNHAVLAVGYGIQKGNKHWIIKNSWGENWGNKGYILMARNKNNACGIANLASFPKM
Nature of the assay: Cathepsin K enzyme inhibition in vitro (kinetic fluorescence assay). The note with it: cathepsin K activated from recombinant human procathepsin K vs calpain I.

Assay [4] deals with T4, cathepsin B (Homo sapiens, UniProt P07858).
T4 construct: cathepsin B—isolated from human liver (Calbiochem #219362); purchased Calbiochem 219362; host or cells: human liver (tissue-derived)
Description: Cathepsin B enzyme inhibition in vitro (kinetic fluorescence assay). The note with it: cathepsin B isolated from human liver vs calpain I. Put shortly:
as §1

T2 sequence (P25774 115-331): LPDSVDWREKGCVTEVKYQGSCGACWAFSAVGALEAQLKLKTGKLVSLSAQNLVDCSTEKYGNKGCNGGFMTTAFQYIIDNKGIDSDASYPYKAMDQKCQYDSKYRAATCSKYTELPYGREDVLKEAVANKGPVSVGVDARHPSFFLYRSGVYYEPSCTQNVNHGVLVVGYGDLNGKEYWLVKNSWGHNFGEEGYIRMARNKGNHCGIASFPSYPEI
T1 sequence (P07711 114-333): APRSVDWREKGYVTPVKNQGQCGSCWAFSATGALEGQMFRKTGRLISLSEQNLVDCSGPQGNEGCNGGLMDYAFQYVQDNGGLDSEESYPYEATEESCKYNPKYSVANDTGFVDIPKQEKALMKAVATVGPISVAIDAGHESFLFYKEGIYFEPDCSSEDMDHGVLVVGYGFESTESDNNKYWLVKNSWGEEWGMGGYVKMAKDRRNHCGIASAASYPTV

As for `COc1ccc(F)cc1-c1ccn(-c2ncccc2C(=O)NC(Cc2ccccc2)C(=O)C(N)=O)n1` (stereo not drawn) [Example 130, N-[3-Amino-2,3-dioxo-1-(phenylmethyl)propyl]-2-{3-[5-fluoro-2-(methyloxy)phenyl]-1H-pyrazol-1-yl}pyridine-3-carboxamide], in assay [1], the “Sel cat. L: Ki(cathepsin L)/Ki(calpain) ratio” value is listed as “++ (++ means a Ki(cathepsin L)/Ki(calpain) ratio of ≧50)”. Further, the “Sel cat. S: Ki(cathepsin S)/Ki(calpain) ratio” value in assay [2] is “++ (++ means a Ki(cathepsin S)/Ki(calpain) ratio of ≧100)”. Also, the “Sel cat. K: Ki(cathepsin K)/Ki(calpain) ratio” value in assay [3] is “++ (++ means a Ki(cathepsin K)/Ki(calpain) ratio of ≧30)”. Further, in assay [4], the “Sel cat. B: Ki(cathepsin B)/Ki(calpain) ratio” value is “++ (++ means a Ki(cathepsin B)/Ki(calpain) ratio of ≧30)”.

Consider `COc1ccc(Cl)cc1-c1ccn(-c2ncccc2C(=O)NC(Cc2ccccc2)C(=O)C(N)=O)n1` (stereo not drawn) [Example 131, N-[3-Amino-2,3-dioxo-1-(phenylmethyl)propyl]-2-{3-[5-chloro-2-(methyloxy)phenyl]-1H-pyrazol-1-yl}pyridine-3-carboxamide], for which the “Sel cat. L: Ki(cathepsin L)/Ki(calpain) ratio” value in assay [1] was “++ (++ means a Ki(cathepsin L)/Ki(calpain) ratio of ≧50)”. Moreover, the “Sel cat. S: Ki(cathepsin S)/Ki(calpain) ratio” value in assay [2] is listed as “++ (++ means a Ki(cathepsin S)/Ki(calpain) ratio of ≧100)”. The “Sel cat. K: Ki(cathepsin K)/Ki(calpain) ratio” value in assay [3] was “++ (++ means a Ki(cathepsin K)/Ki(calpain) ratio of ≧30)”. Moreover, the “Sel cat. B: Ki(cathepsin B)/Ki(calpain) ratio” value in assay [4] was “++ (++ means a Ki(cathepsin B)/Ki(calpain) ratio of ≧30)”.

`NC(=O)C(=O)C(Cc1ccc(OC(F)(F)F)cc1)NC(=O)c1cccnc1-n1ccc(-c2ccc(F)cc2)n1` (stereo not drawn) [Example 132, N-[3-Amino-2,3-dioxo-1-({4-[(trifluoromethyl)oxy]phenyl}methyl)propyl]-2-[3-(4-fluorophenyl)-1H-pyrazol-1-yl]pyridine-3-carboxamide]: in assay [1], the “Sel cat. L: Ki(cathepsin L)/Ki(calpain) ratio” value is given as “++ (++ means a Ki(cathepsin L)/Ki(calpain) ratio of ≧50)”. For the same compound, the “Sel cat. S: Ki(cathepsin S)/Ki(calpain) ratio” value in assay [2] is “++ (++ means a Ki(cathepsin S)/Ki(calpain) ratio of ≧100)”. Moreover, the “Sel cat. K: Ki(cathepsin K)/Ki(calpain) ratio” value in assay [3] is listed as “++ (++ means a Ki(cathepsin K)/Ki(calpain) ratio of ≧30)”. Also, the “Sel cat. B: Ki(cathepsin B)/Ki(calpain) ratio” value in assay [4] is on record as “+ (+ means 10≦Ki(cathepsin B)/Ki(calpain)<30)”.

Turning to `NC(=O)C(=O)C(Cc1ccc(OC(F)(F)F)cc1)NC(=O)c1cccnc1-n1ccc(-c2ccccc2)n1` (stereo not drawn) [Example 133, N-[3-Amino-2,3-dioxo-1-({4-[(trifluoromethyl)oxy]phenyl}methyl)propyl]-2-(3-phenyl-1H-pyrazol-1-yl)pyridine-3-carboxamide], in assay [1], the “Sel cat. L: Ki(cathepsin L)/Ki(calpain) ratio” value is reported as “++ (++ means a Ki(cathepsin L)/Ki(calpain) ratio of ≧50)”. In assay [2], the “Sel cat. S: Ki(cathepsin S)/Ki(calpain) ratio” value is recorded as “++ (++ means a Ki(cathepsin S)/Ki(calpain) ratio of ≧100)”. Further, the “Sel cat. K: Ki(cathepsin K)/Ki(calpain) ratio” value in assay [3] is “++ (++ means a Ki(cathepsin K)/Ki(calpain) ratio of ≧30)”. The “Sel cat. B: Ki(cathepsin B)/Ki(calpain) ratio” value in assay [4] is on record as “++ (++ means a Ki(cathepsin B)/Ki(calpain) ratio of ≧30)”.

Consider `NC(=O)C(=O)C(Cc1ccc(OC(F)(F)F)cc1)NC(=O)c1cccnc1-n1ccc(-c2cccc(C(F)(F)F)c2)n1` (stereo not drawn) [Example 134, N-[3-Amino-2,3-dioxo-1-({4-[(trifluoromethyl)oxy]phenyl}methyl)propyl]-2-{3-[3-(trifluoromethyl)phenyl]-1H-pyrazol-1-yl}pyridine-3-carboxamide], for which the “Sel cat. L: Ki(cathepsin L)/Ki(calpain) ratio” value in assay [1] is listed as “+ (+ means 30≦Ki(cathepsin L)/Ki(calpain)<50)”. Besides, in assay [2], the “Sel cat. S: Ki(cathepsin S)/Ki(calpain) ratio” value is reported as “+ (+ means 50≦Ki(cathepsin S)/Ki(calpain)<100)”. In addition, the “Sel cat. K: Ki(cathepsin K)/Ki(calpain) ratio” value in assay [3] is “++ (++ means a Ki(cathepsin K)/Ki(calpain) ratio of ≧30)”. Further, in assay [4], the “Sel cat. B: Ki(cathepsin B)/Ki(calpain) ratio” value is “++ (++ means a Ki(cathepsin B)/Ki(calpain) ratio of ≧30)”.

In the case of `COc1ccc(CC(NC(=O)c2cccnc2-n2ccc(-c3cccc4ccccc34)n2)C(=O)C(N)=O)cc1` (stereo not drawn) [Example 135, N-(3-Amino-1-{[4-(methyloxy)phenyl]methyl}-2,3-dioxopropyl)-2-(3-naphthalen-1-yl-1H-pyrazol-1-yl)pyridine-3-carboxamide], the “Sel cat. L: Ki(cathepsin L)/Ki(calpain) ratio” value in assay [1] is reported as “++ (++ means a Ki(cathepsin L)/Ki(calpain) ratio of ≧50)”. The “Sel cat. S: Ki(cathepsin S)/Ki(calpain) ratio” value in assay [2] is reported as “++ (++ means a Ki(cathepsin S)/Ki(calpain) ratio of ≧100)”. In addition, the “Sel cat. K: Ki(cathepsin K)/Ki(calpain) ratio” value in assay [3] is listed as “++ (++ means a Ki(cathepsin K)/Ki(calpain) ratio of ≧30)”. Moreover, the “Sel cat. B: Ki(cathepsin B)/Ki(calpain) ratio” value in assay [4] is “++ (++ means a Ki(cathepsin B)/Ki(calpain) ratio of ≧30)”.

Regarding `COc1ccc(CC(NC(=O)c2cccnc2-n2ccc(-c3ccc(F)cc3OC)n2)C(=O)C(N)=O)cc1` (stereo not drawn) [Example 136, N-(3-Amino-1-{[4-(methyloxy)phenyl]methyl}-2,3-dioxopropyl)-2-{3-[4-fluoro-2-(methyloxy)phenyl]-1H-pyrazol-1-yl}pyridine-3-carboxamide], in assay [1], the “Sel cat. L: Ki(cathepsin L)/Ki(calpain) ratio” value is given as “++ (++ means a Ki(cathepsin L)/Ki(calpain) ratio of ≧50)”. For the same compound, the “Sel cat. S: Ki(cathepsin S)/Ki(calpain) ratio” value in assay [2] was “++ (++ means a Ki(cathepsin S)/Ki(calpain) ratio of ≧100)”. Also, in assay [3], the “Sel cat. K: Ki(cathepsin K)/Ki(calpain) ratio” value was “++ (++ means a Ki(cathepsin K)/Ki(calpain) ratio of ≧30)”. Moreover, in assay [4], the “Sel cat. B: Ki(cathepsin B)/Ki(calpain) ratio” value is on record as “++ (++ means a Ki(cathepsin B)/Ki(calpain) ratio of ≧30)”.

Consider `COc1ccc(CC(NC(=O)c2cccnc2-n2ccc(-c3ccc4c(c3)OC(F)(F)O4)n2)C(=O)C(N)=O)cc1` (stereo not drawn) [Example 137, N-(3-Amino-1-{[4-(methyloxy)phenyl]methyl}-2,3-dioxopropyl)-2-[3-(2,2-difluoro-1,3-benzodioxol-5-yl)-1H-pyrazol-1-yl]pyridine-3-carboxamide], for which the “Sel cat. L: Ki(cathepsin L)/Ki(calpain) ratio” value in assay [1] was “++ (++ means a Ki(cathepsin L)/Ki(calpain) ratio of ≧50)”. For the same compound, in assay [2], the “Sel cat. S: Ki(cathepsin S)/Ki(calpain) ratio” value is “++ (++ means a Ki(cathepsin S)/Ki(calpain) ratio of ≧100)”. In addition, the “Sel cat. K: Ki(cathepsin K)/Ki(calpain) ratio” value in assay [3] is listed as “+ (+ means 10≦Ki(cathepsin K)/Ki(calpain)<30)”. The “Sel cat. B: Ki(cathepsin B)/Ki(calpain) ratio” value in assay [4] is on record as “+ (+ means 10≦Ki(cathepsin B)/Ki(calpain)<30)”.

`COc1cc(Cl)ccc1-c1ccn(-c2ncccc2C(=O)NC(Cc2ccccc2)C(=O)C(N)=O)n1` (stereo not drawn) [Example 139, N-[3-Amino-2,3-dioxo-1-(phenylmethyl)propyl]-2-{3-[4-chloro-2-(methyloxy)phenyl]-1H-pyrazol-1-yl}pyridine-3-carboxamide]: the “Sel cat. L: Ki(cathepsin L)/Ki(calpain) ratio” value in assay [1] is given as “++ (++ means a Ki(cathepsin L)/Ki(calpain) ratio of ≧50)”. Moreover, the “Sel cat. S: Ki(cathepsin S)/Ki(calpain) ratio” value in assay [2] is on record as “++ (++ means a Ki(cathepsin S)/Ki(calpain) ratio of ≧100)”. In addition, the “Sel cat. K: Ki(cathepsin K)/Ki(calpain) ratio” value in assay [3] was “++ (++ means a Ki(cathepsin K)/Ki(calpain) ratio of ≧30)”. The “Sel cat. B: Ki(cathepsin B)/Ki(calpain) ratio” value in assay [4] is “+ (+ means 10≦Ki(cathepsin B)/Ki(calpain)<30)”.

With `NC(=O)C(=O)C(Cc1ccccc1)NC(=O)c1cccnc1-n1cc2c(n1)-c1cc(Cl)ccc1OC2` (stereo not drawn) [Example 140, N-[3-Amino-2,3-dioxo-1-(phenylmethyl)propyl]-2-(8-chlorochromeno[4,3-c]pyrazol-2(4H)-yl)pyridine-3-carboxamide], the “Sel cat. L: Ki(cathepsin L)/Ki(calpain) ratio” value in assay [1] is “++ (++ means a Ki(cathepsin L)/Ki(calpain) ratio of ≧50)”. Moreover, in assay [2], the “Sel cat. S: Ki(cathepsin S)/Ki(calpain) ratio” value was “++ (++ means a Ki(cathepsin S)/Ki(calpain) ratio of ≧100)”. In addition, the “Sel cat. K: Ki(cathepsin K)/Ki(calpain) ratio” value in assay [3] is “++ (++ means a Ki(cathepsin K)/Ki(calpain) ratio of ≧30)”. Also, the “Sel cat. B: Ki(cathepsin B)/Ki(calpain) ratio” value in assay [4] was “+ (+ means 10≦Ki(cathepsin B)/Ki(calpain)<30)”.

Consider `COc1ccc2c(c1)OCc1cn(-c3ncccc3C(=O)NC(Cc3ccccc3)C(=O)C(N)=O)nc1-2` (stereo not drawn) [Example 142, N-[3-Amino-2,3-dioxo-1-(phenylmethyl)propyl]-2-[7-(methyloxy)chromeno[4,3-c]pyrazol-2(4H)-yl]pyridine-3-carboxamide], for which the “Sel cat. L: Ki(cathepsin L)/Ki(calpain) ratio” value in assay [1] was “++ (++ means a Ki(cathepsin L)/Ki(calpain) ratio of ≧50)”. Besides, the “Sel cat. S: Ki(cathepsin S)/Ki(calpain) ratio” value in assay [2] is given as “++ (++ means a Ki(cathepsin S)/Ki(calpain) ratio of ≧100)”. In addition, the “Sel cat. K: Ki(cathepsin K)/Ki(calpain) ratio” value in assay [3] is reported as “+ (+ means 10≦Ki(cathepsin K)/Ki(calpain)<30)”. Besides, in assay [4], the “Sel cat. B: Ki(cathepsin B)/Ki(calpain) ratio” value was “+ (+ means 10≦Ki(cathepsin B)/Ki(calpain)<30)”.

With `Cc1c(Cl)ccc2c1-c1nn(-c3ncccc3C(=O)NC(Cc3ccccc3)C(=O)C(N)=O)cc1CO2` (stereo not drawn) [Example 143, N-[3-Amino-2,3-dioxo-1-(phenylmethyl)propyl]-2-(8-chloro-9-methylchromeno[4,3-c]pyrazol-2(4H)-yl)pyridine-3-carboxamide], the “Sel cat. L: Ki(cathepsin L)/Ki(calpain) ratio” value in assay [1] is given as “++ (++ means a Ki(cathepsin L)/Ki(calpain) ratio of ≧50)”. In addition, in assay [2], the “Sel cat. S: Ki(cathepsin S)/Ki(calpain) ratio” value is “++ (++ means a Ki(cathepsin S)/Ki(calpain) ratio of ≧100)”. The “Sel cat. K: Ki(cathepsin K)/Ki(calpain) ratio” value in assay [3] is recorded as “++ (++ means a Ki(cathepsin K)/Ki(calpain) ratio of ≧30)”. For the same compound, the “Sel cat. B: Ki(cathepsin B)/Ki(calpain) ratio” value in assay [4] is given as “++ (++ means a Ki(cathepsin B)/Ki(calpain) ratio of ≧30)”.
